Reference: US8586611B2 (priority 2005, dated 2013)

Assays:
Type in all cases: in vivo
[1] = test system: Pseudoperonospora cubensis; assay: Test A: cucumber downy mildew, spray the day before inoculation (disease rating, 100 = 100% disease control); settings: spray the day before inoculation, compounds without asterisk (not 40 or 10 ppm)
Excerpt: The test compounds were first dissolved in acetone in an amount equal to 3% of the final volume and then suspended at the desired concentration (in ppm) in acetone and purified water (50/50 mix by volume) containing 250 ppm of the surfactant Trem® 014 (polyhydric alcohol esters). The resulting test suspensions were then used in tests A-E. Spraying a 200 ppm test suspension to the point of run-off on the test plants was the equivalent of a rate of 500 g/ha.
(§1) The test suspension was sprayed to the point of run-off on cucumber seedlings. The following day the seedlings were inoculated with a spore suspension of Pseudoperonospora cubensis (the causal agent of cucumber downy mildew) and incubated in a saturated atmosphere at 20° C. for 24 h, and then moved to a growth chamber at 20° C. for 6 days, after which disease ratings were made.
(§2) Results for Tests A-F are given in Table A. In the table, a rating of 100 indicates 100% disease control and a rating of 0 indicates no disease control (relative to the controls). A dash (-) indicates no test results.

Plasmopara viticola = assay: Test B: grape downy mildew, spray 24 h after inoculation (disease rating, 100 = 100% disease control)
Summary of the method: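 This is a curative spray test, applied 24 h after inoculation. Compounds in 50/50 acetone–water with 250 ppm Trem 014 surfactant were sprayed to run-off on P. viticola-infected seedlings, with 200 ppm equating to 500 g/ha. Plants were kept 5 days in a 20 °C growth chamber, then 24 h humid, and scored 0–100 for disease control relative to controls.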

Phytophthora infestans [2] = assay: whole plant or invertebrate; settings: tomato late blight
[3] = test system: Erysiphe graminis f. sp. tritici; assay: Test E: wheat powdery mildew, spray the day before inoculation (disease rating, 100 = 100% disease control)
Summary of the method: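 Protective test: spores of E. graminis f. sp. tritici dusted on wheat seedlings one day after run-off spraying of test suspension (acetone/water with 250 ppm surfactant; 200 ppm = 500 g/ha). Ratings after 7 days in growth chamber at 20° C, 100 = full control, 0 = none, relative to controls.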

Phytophthora infestans [4] = assay: whole plant or invertebrate; settings: tomato late blight; remark: listed apart in the source
[5] = test system: Pseudoperonospora cubensis; assay: Test F: cucumber downy mildew, DMSO/acetone/water test suspension, spray the day before inoculation (disease rating, 100 = 100% disease control)
Excerpt: The test compounds were first dissolved in dimethyl sulfoxide (DMSO) in an amount equal to 4% of the final volume and then suspended at the desired concentration (in ppm) in acetone and purified water (30/70 mix by volume). The resulting test suspensions were then used in test F. Spraying a 250 ppm test suspension on the test plants was the equivalent of a rate of 250 g/ha.
as §1, with “sprayed” for “sprayed to the point of run-off”
as §2

[6] = spray 24 h after inoculation, compounds without asterisk (not 40 or 10 ppm)
[7] = spray the day before inoculation, compounds without asterisk (not 40 or 10 ppm)
[8] = spray 17 h after inoculation, compounds without asterisk (not 40 or 10 ppm)
[9] = DMSO/acetone/water suspension, spray the day before inoculation, compounds without asterisk
[10] = sprayed 24 h after inoculation, unmarked compounds (no asterisk, not 40 or 10 ppm)
[11] = sprayed the day before inoculation, unmarked compounds (no asterisk, not 40 or 10 ppm)
[12] = sprayed 17 h after inoculation, unmarked compounds (no asterisk, not 40 or 10 ppm)
[13] = sprayed the day before inoculation, 7 days at 20° C., unmarked compounds (no asterisk, not 40 or 10 ppm)
[14] = DMSO/acetone/water test suspension, sprayed the day before inoculation, unmarked compounds (no asterisk)

Row | Compound | Test A disease rating (100 = 100% disease control, 0 = no disease control) [1] | Test B disease rating (100 = 100% disease control, 0 = no disease control) (Plasmopara viticola; [6]) | Test C disease rating (100 = 100% disease control, 0 = no disease control) (Phytophthora infestans [2]; [7]) | Test E disease rating (100 = 100% disease control, 0 = no disease control) [3, 7] | Test D disease rating (100 = 100% disease control, 0 = no disease control) (Phytophthora infestans [4]; [8]) | Test F disease rating (100 = 100% disease control, 0 = no disease control) [5, 9] | Test B disease rating (100 = 100% disease control, 0 = no disease control) (Plasmopara viticola; [10]) | Test C disease rating (100 = 100% disease control, 0 = no disease control) (Phytophthora infestans [2]; [11]) | Test D disease rating (100 = 100% disease control, 0 = no disease control) (Phytophthora infestans [4]; [12]) | Test E disease rating (100 = 100% disease control, 0 = no disease control) [3, 13] | Test F disease rating (100 = 100% disease control, 0 = no disease control) [5, 14]
1 | 2-[1-[(2,5-dichlorophenyl)acetyl]-4-piperidinyl]-N-methyl-N-[(1R)-1-phenylpropyl]-4-thiazolecarboxamide [Compound 110] | 0% | 53% | 0% | 21% | – | – | – | – | – | – | –
2 | 2-[1-[(2,5-dimethylphenyl)acetyl]-4-piperidinyl]-N-methyl-N-[(1R)-1,2,3,4-tetrahydro-1-naphthalenyl]-4-oxazolecarboxamide [Compound 153] | 82% | 28% | 0% | 0% | – | – | – | – | – | – | –
3 | COc1ccc(C)cc1CC(=O)N1CCC(c2nc(C(=O)N(C)[C@H](C)c3ccccc3)cs2)CC1 [compound 125] | – | 100% | 100% | 94% | 99% | 100% | – | – | – | – | –
4 | Cc1cc(C(F)(F)F)nn1CC(=O)N1CCC(c2nc(C(=O)N(C)[C@H](C)c3ncc(Cl)cc3Cl)cs2)CC1 [compound 143] | – | 69% | 100% | 0% | 99% | 50% | – | – | – | – | –
5 | C[C@H](c1ccccc1)N(C)C(=O)c1coc(C2CCN(C(=O)Nc3cccc(C(F)(F)F)c3)CC2)n1 [compound 158] | – | 9% | 95% | 0% | 0% | 90% | – | – | – | – | –
6 | COc1ccc(C)cc1NC(=S)N1CCC(c2nc(C(=O)N(C)[C@H](C)c3ccccc3)cs2)CC1 [compound 159] | – | 95% | 99% | 73% | 91% | 93% | – | – | – | – | –
7 | C[C@H](c1ccccc1)N(C)C(=O)c1csc(C2CCN(C(=S)Nc3cccc(C(F)(F)F)c3)CC2)n1 [compound 160] | – | 47% | 40% | 0% | 0% | 50% | – | – | – | – | –
8 | Cc1ccc(C)c(CC(=O)N2CCC(c3nc(C(=O)N(C)Cc4ccccc4)cs3)CC2)c1 [compound 167] | – | 27% | 97% | 0% | 0% | 99% | – | – | – | – | –
9 | Cc1ccc(C)c(CC(=O)N2CCC(c3nc(C(=O)N(C)C4CSCc5ccccc54)cs3)CC2)c1 (centres unmarked) [compound 172] | – | 43% | 100% | 0% | 100% | 99% | – | – | – | – | –
10 | Cc1ccc(C)c(CC(=O)N2CCC(c3nc(C(=O)N(C)C4CCCc5c4ccc4ccccc54)cs3)CC2)c1 (centres unmarked) [compound 173] | – | 0% | 0% | 0% | 0% | 95% | – | – | – | – | –
11 | Cc1ccc(C)c(CC(=O)N2CCC(c3nc(C(=O)N(C)C4CCCCC4)cs3)CC2)c1 [compound 174] | – | 68% | 100% | 0% | 63% | 90% | – | – | – | – | –
12 | Cc1ccc(C)c(CC(=O)N2CCC(c3nc(C(=O)N(C)C(C)(C)Cc4ccc(F)cc4)cs3)CC2)c1 [compound 175] | – | 93% | 95% | 0% | 0% | 43% | – | – | – | – | –
13 | Cc1ccc(C)c(CC(=O)N2CCC(c3nc(C(=O)N(C)C4CCCC(C)C4)cs3)CC2)c1 (centres unmarked) [compound 176] | – | 15% | 95% | 0% | 24% | 49% | – | – | – | – | –
14 | Cc1ccc(C)c(CC(=O)N2CCC(c3nc(C(=O)N(C)C4CCCC(C)C4C)cs3)CC2)c1 (centres unmarked) [compound 177] | – | 86% | 100% | 0% | 79% | 43% | – | – | – | – | –
15 | Cc1cc(C(F)(F)F)nn1CC(=O)N1CCC(c2nc(C(=O)N(C)C3CCCc4ccccc43)cs2)CC1 (centres unmarked) [compound 187] | – | 98% | 100% | 0% | 99% | 93% | – | – | – | – | –
16 | Cc1cc(C(F)(F)F)nn1CC(=O)N1CCC(c2nc(C(=O)N(C)C3CCCc4cc(O)ccc43)cs2)CC1 (centres unmarked) [compound 190] | – | 8% | 100% | 0% | 99% | 93% | – | – | – | – | –
17 | C[C@@H](NC(=O)c1csc(C2CCN(C(=O)Cc3cccc(Br)c3)CC2)n1)c1ccccc1C(F)(F)F [compound 275] | – | – | – | – | – | – | 30 | 9 | 0 | 0 | 0
18 | CC[C@@H](NC(=O)c1csc(C2CCN(C(=O)Cc3cccc(Br)c3)CC2)n1)c1ccccc1 [compound 278] | – | – | – | – | – | – | 0 | 33 | 0 | 0 | 93
19 | COc1ccc([C@@H](C)NC(=O)c2csc(C3CCN(C(=O)Cc4cccc(Br)c4)CC3)n2)cc1 [compound 279] | – | – | – | – | – | – | 0 | 0 | 0 | 0 | 0
20 | Cc1ccc(C)c(CC(=O)N2CCC(c3nc(C(=O)N[C@H](C)c4ccccc4)cs3)CC2)c1 [compound 283] | – | – | – | – | – | – | 48 | 84 | 0 | 0 | 99
